Data taken from article PMC5154685 (Journal of medicinal chemistry, 2016).

What was measured:
[1] = target: Eis_Mtb acetyltransferase (Mycobacterium tuberculosis, UniProt P9WFK7); format: biochemical; settings: for Extent of Eis inhibition of HTS compounds (in words): follow-up description
AAC(6′)-Ie/APH(2″)-Ia = AAC(6′)-Ie/APH(2″)-Ia (Staphylococcus aureus, UniProt P0A0C1); assay: Inhibitor selectivity, AAC; format: biochemical; settings: concentrations as high as 200 μM
AAC(2′)-Ic = AAC(2′)-Ic (Mycobacterium tuberculosis, UniProt P9WQG9); assay: Inhibitor selectivity, AAC
AAC(2′)-Ic, sequence (P9WQG9 whole entry): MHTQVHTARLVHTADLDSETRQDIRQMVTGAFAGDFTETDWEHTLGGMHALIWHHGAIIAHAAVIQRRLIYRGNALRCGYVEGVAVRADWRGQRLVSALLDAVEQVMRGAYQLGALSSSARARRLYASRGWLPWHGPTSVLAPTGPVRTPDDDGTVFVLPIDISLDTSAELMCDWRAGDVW

Eis_Mtb acetyltransferase, sequence (P9WFK7 whole entry): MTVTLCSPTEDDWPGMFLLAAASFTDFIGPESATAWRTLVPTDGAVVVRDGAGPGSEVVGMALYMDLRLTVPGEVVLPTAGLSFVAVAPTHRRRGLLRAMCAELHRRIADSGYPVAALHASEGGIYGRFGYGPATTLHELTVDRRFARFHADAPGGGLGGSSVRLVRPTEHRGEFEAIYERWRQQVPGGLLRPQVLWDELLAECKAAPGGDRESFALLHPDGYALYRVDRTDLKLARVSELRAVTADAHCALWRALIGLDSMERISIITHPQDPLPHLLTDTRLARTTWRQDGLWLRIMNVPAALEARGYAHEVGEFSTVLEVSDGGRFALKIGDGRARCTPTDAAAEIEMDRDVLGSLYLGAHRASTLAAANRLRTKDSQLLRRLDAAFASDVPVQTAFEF
AAC(6′)-Ie/APH(2″)-Ia, sequence (P0A0C1 whole entry): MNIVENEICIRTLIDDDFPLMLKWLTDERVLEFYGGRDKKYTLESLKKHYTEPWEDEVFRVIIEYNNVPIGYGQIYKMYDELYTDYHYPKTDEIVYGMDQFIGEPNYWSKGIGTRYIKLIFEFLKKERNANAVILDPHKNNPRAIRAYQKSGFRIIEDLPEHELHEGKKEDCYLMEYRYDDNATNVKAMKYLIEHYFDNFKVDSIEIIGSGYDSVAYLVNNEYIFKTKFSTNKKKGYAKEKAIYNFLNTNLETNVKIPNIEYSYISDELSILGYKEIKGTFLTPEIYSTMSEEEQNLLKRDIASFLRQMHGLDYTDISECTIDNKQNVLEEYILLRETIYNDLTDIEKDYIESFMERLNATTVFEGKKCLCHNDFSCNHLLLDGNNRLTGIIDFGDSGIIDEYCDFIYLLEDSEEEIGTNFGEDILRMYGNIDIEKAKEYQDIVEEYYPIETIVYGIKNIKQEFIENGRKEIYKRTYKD

Row | SMILES | Extent of Eis inhibition of HTS compounds (in words) [1] | inhibition of acetylation by AAC(6′)-Ie/APH(2″)-Ia (in words) (AAC(6′)-Ie/APH(2″)-Ia) | further results
1 | Cc1cc(NS(=O)(=O)c2ccc3[nH]c(=O)c(=O)[nH]c3c2)ccc1Br [Compound 1] | modest Eis inhibition | – | –
2 | O=c1[nH]c2ccc(S(=O)(=O)Nc3ccc(Cl)c(C(F)(F)F)c3)cc2[nH]c1=O [Compound 3] | modest Eis inhibition | – | –
3 | O=c1[nH]c2ccc(S(=O)(=O)Nc3ccc4c(c3)OCCO4)cc2[nH]c1=O [Compound 4] | modest Eis inhibition | – | –
4 | CN(c1ccc(Br)cc1)S(=O)(=O)c1ccc2[nH]c(=O)c(=O)[nH]c2c1 [Compound 29, N-(4-Bromophenyl)-N-methyl-2,3-dioxo-1,2,3,4-tetrahydro-6-quinoxalinesulfonamide] | – | – | Eis inhibition in the HTS (hit or not) [1]: hits
5 | COc1cccc(N(C)S(=O)(=O)c2ccc3[nH]c(=O)c(=O)[nH]c3c2)c1 [Compound 39, N-(3-Methoxyphenyl)-N-methyl-2,3-dioxo-1,2,3,4-tetrahydro-6-quinoxalinesulfonamide] | – | did not inhibit | –
6 | CN(c1ccc2ccccc2c1)S(=O)(=O)c1ccc2[nH]c(=O)c(=O)[nH]c2c1 [Compound 46, N-(2-Naphthyl)-N-methyl-2,3-dioxo-1,2,3,4-tetrahydro-6-quinoxalinesulfonamide] | – | did not inhibit | inhibition of acetylation by AAC(2′)-Ic (in words) (AAC(2′)-Ic): did not inhibit
